On the set-up of data set [1]: method as in Canale et al., 2021. The following applies: ref Canale et al., 2021; cited from earlier work.
A further data set deals with T1, hH1R (Homo sapiens, UniProt P35367).
T1 construct: expressed in transfected cells; host or cells: CHO K1 cells
Description: hH1R radioligand binding, [3H]pyrilamine in CHO K1 cells. The following applies: protocol of Lazewska et al., 2017.

Data set [2] deals with MES-induced seizures in mice. Description: Maximal electroshock (MES)-induced seizure, duration of tonic hind limb extension (THLE). The class given is in vivo, C57BL/6J mice. As to conditions: for protection compared with reference drug VPA: DL76 60 mg/kg i.p. vs VPA 300 mg/kg; for mean difference in THLE: DL76 60 mg/kg vs saline-, DL76 7.5, 15, 30 mg/kg groups, p < 0.05. The text has this: As previously described and with a slight modification in the intensity applied, seizures were elicited in mice with a 50-Hz alternating current of 120 mA intensity ([Kaminski et al., 2015]; [Song et al., 2020]; [Xiao et al., 2021]; [Hua et al., 2023]). The current was applied through ear electrodes for 0.2 s. Protection against the spread of MES-induced convulsion was defined as the abolition of the tonic hind limb extension (THLE) component of the seizure ([Kaminski et al., 2015]; [Song et al., 2020]; [Xiao et al., 2021]; [Hua et al., 2023]). The animals were divided into the following experimental groups, with eight mice in each: the control group injected with saline, the positive control group injected with 300 mg/kg of VPA (the minimal dose of VPA that protected animals against the spread of MES-induced convulsions without mortality in mice) ([Sadek et al., 2015]; [Bastaki et al., 2018]), and four groups that were administered the test compound DL76 at doses of 7.5 mg/kg, 15 mg/kg, 30 mg/kg, or 60 mg/kg. All drugs were administered 30–45 min before the MES challenge. In a further group of eight mice, the most promising and protective dose of DL76 (60 mg/kg, i.p.) was co-injected with RAM (10 mg/kg, i.p.), 30 min apart and 15 min prior to the MES test. Protection against the spread of MES-induced convulsion was defined as the abolition of the THLE component of the convulsion ([Sadek et al., 2015]; [Alachkar et al., 2018]; [Bastaki et al., 2018]).
Statistical analyses employed SPSS 26.0 (IBM Middle East, Dubai, UAE). Data were presented as means ± SEM. […] Fetal abnormality data were presented as counts and percentages. Fisher’s exact test compared the percentages of abnormalities between the control group (saline) and the different dose groups. All tests were two-tailed, and significance was set at p < 0.05.

The subject of the next data set is several cell lines. More on the design: method as in Canale et al., 2021. As to conditions: ref Canale et al., 2021; cited from earlier work.
The next data set relates to H3R. More on the design: method as in Lazewska et al. (2006). The following applies: after p.o. administration to mice; ref Lazewska et al. (2006); cited from earlier work.
A further data set concerns the target hH3R. More on the design: method as in Lazewska et al. (2006). As to conditions: CHO K1 cells; [125I]Iodoproxyfan binding assay; ref Lazewska et al. (2006); cited from earlier work.
For a further data set, the target named is adrenergic α2 receptor. Description: adrenergic α2 receptor binding, [3H]clonidine in rat cerebral cortex. As to conditions: protocol of Canale et al., 2021.

These results are taken from publication PMC11188305, “Reproductive and fetal toxicity studies of histamine H3 receptor antagonist DL76 used in mice to prevent maximal electroshock-induced seizure” (Frontiers in Pharmacology, 2024).

T1 sequence (P35367 whole entry): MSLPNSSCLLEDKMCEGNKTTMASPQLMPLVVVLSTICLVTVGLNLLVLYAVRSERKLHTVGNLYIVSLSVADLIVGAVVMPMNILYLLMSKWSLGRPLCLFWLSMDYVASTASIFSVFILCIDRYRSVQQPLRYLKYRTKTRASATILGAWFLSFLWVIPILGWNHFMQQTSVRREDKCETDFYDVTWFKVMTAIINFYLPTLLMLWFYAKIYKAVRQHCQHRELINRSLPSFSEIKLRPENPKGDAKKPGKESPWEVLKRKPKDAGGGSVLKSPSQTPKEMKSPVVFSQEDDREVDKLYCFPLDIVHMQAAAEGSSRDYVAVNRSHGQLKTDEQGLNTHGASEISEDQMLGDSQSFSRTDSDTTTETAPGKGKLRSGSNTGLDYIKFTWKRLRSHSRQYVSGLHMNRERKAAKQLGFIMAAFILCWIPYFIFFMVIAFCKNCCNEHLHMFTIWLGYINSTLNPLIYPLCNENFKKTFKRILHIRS

For `CC(C)(C)c1ccc(OCCCN2CCCCC2)cc1` [DL76, 1-(3-(4-tert-butyl-phenoxy)propyl) piperidine], in data set [1], the antiparkinsonian effects result is “antiparkinsonian effects”. The inhibition constant (Ki) at hH1R was 849 ± 67 nM; on hH3R it was 22 nM; on adrenergic α2 receptor it was more than 5000 nM. For the same molecule, the “difference of protective effects between male and female mice” value in data set [2] (DL76 7.5, 15, 30 and 60 mg/kg i.p., p = 0.70, 0.685, 0.151, 0.398) is on record as “no significant differences”. Moreover, the “THLE compared with reference drug VPA (300 mg/kg, i.p.)” value in data set [2] (both sexes of adult mice, DL76 30 mg/kg and 60 mg/kg) was “no significant differences”. For the same molecule, the “THLE values compared with VPA” value in data set [2] (both sexes of adult mice, lower doses of DL76 7.5 mg/kg and 15 mg/kg i.p.) is on record as “significant difference”. Also, the “mean difference, saline + saline vs. DL76 + RAM” value in data set [2] (female adult mice, DL76 60 mg/kg + RAM 10 mg/kg i.p., p = 0.17) is recorded as 1.33. The “protection after co-administration of RAM” value in data set [2] (female adult mice, DL76 60 mg/kg i.p. + RAM 10 mg/kg i.p. 15 min before MES) is given as “abrogated”. Moreover, the “protection compared with reference drug VPA” value is on record as “comparable” in data set [2] (female adult mice, p = 0.72) and “comparable” in data set [2] (male adult mice, p = 1.000). For the same molecule, the “mean difference in THLE” value in data set [2] (female adult mice, 2nd of three printed values) stood at 10.63 s; in data set [2] (female adult mice, 3rd of three printed values), 3.13 s. The “protection against MES-induced convulsions” value in data set [2] (female adult mice, DL76 7.5–60 mg/kg i.p.) is “significantly protected”. Also, the “protection against MES-induced seizures” value in data set [2] (female and male mice, 7.5, 15, 30 and 60 mg/kg i.p., acute) is “significant and dose-dependent protection”. In data set [2] (male adult mice, DL76 60 mg/kg + RAM 10 mg/kg i.p., p = 0.094), the “mean difference of THLE, saline vs. DL76+RAM” value is reported as 2.5 s. Also, the “protection after co-injection with H3R agonist RAM” value in data set [2] (male adult mice, DL76 60 mg/kg i.p. + RAM 10 mg/kg i.p. 15 min before MES) is listed as “reversed”. Moreover, the “mean difference of THLE” value in data set [2] (male adult mice, DL76 60 mg/kg i.p. vs DL76 (7.5 mg/kg)-treated group) was 7.25 s; in data set [2] (male adult mice, DL76 60 mg/kg i.p. vs DL76 (15 mg/kg)-treated group) it was 8.88 s; in data set [2] (male adult mice, DL76 60 mg/kg i.p. vs DL76 (30 mg/kg)-treated group), 10.75 s. In data set [2] (male adult mice, all doses 7.5, 15, 30, 60 mg/kg i.p., all p <0.0001), the “protective effect on MES-induced convulsions vs saline” value is recorded as “substantial protective effects”. Also, in the data set with several cell lines, the in vitro toxicity result is “without inducing in vitro toxicity”. For the same molecule, the “ED50, in vivo H3R antagonist potency” value with H3R was 2.8 ± 0.4 mg/kg.
